One assay concerns septin-9. The experiment in a line: Confocal analysis of septin-9 filament structure. In kind it is cell-based.
The test system of a further assay is EGFR. The experiment in a line: Western blot of EGFR expression. In kind it is cell-based. Particulars: UR214-7 33 μM, UR214-9 33 μM; 24 hours. The method, then: (§1) Cell lines, Culture, and Reagents. Cells were maintained in either DMEM (SKOV-3, KLE, OVCAR-3, OVCAR8-C5 and IGROV-1) or RPMI-1640 (ECC-1 and HCH-1), supplemented with 10% fetal calf serum (or 20% for OVCAR-3), penicillin (100 units/mL), and streptomycin (100 μg/mL) at 37° C. with 5% CO2 in a humidified incubator. Antibodies were purchased from Abcam (septin-2; ab179436) and Cell Signaling Technology; ERK (9102), p-ERK (4370), -actin (3700), u-Tubulin (2144), EGFR (4267) and HER2 (4290). FCF was purchased from Abcam. All other chemicals were from Sigma Aldrich. Synthesis of Derivaties. […] The reaction was monitored using thin-layer chromatography plates with DCM-MeOH or pure ethyl acetate as eluent. Spots were monitored in a UV chamber. […] Quantitative Real-Time PCR. […] Quantitative real-time PCR was conducted using QuantStudio 12 K Flex Real-Time PCR System (ABI) and the Taqman Gene Expression Assay (ABI) consisting of the FAM-labeled probes as follows: SEPT2 (Hs01565417_ml); WFDC2 (Hs00899484_ml); TBP (Hs00427620_ml) or B2M (Hs00187842_ml), which was used as reference for normalization. […] Cell viability, proliferation, and cellular apoptosis were measured using the MTS (Promega), BrdU cell proliferation (Cell Signaling Technology), and Caspase-Glo 3/7 apoptosis detection (Promega) assays, following the respective manufacturer's recommendations with suitable modification. […]

The test system of the next assay is HE4. Description: HE4 ELISA, secreted and intracellular levels. In kind it is cell-based, human. Here is the method:
Cell lines, Culture, and Reagents. Cells were maintained in either DMEM (SKOV-3, KLE, OVCAR-3, OVCAR8-C5 and IGROV-1) or RPMI-1640 (ECC-1 and HCH-1), supplemented with 10% fetal calf serum (or 20% for OVCAR-3), penicillin (100 units/mL), and streptomycin (100 μg/mL) at 37° C. with 5% CO2 in a humidified incubator. Antibodies were purchased from Abcam (septin-2; ab179436) and Cell Signaling Technology; ERK (9102), p-ERK (4370), -actin (3700), u-Tubulin (2144), EGFR (4267) and HER2 (4290). FCF was purchased from Abcam. All other chemicals were from Sigma Aldrich. Synthesis of Derivaties. […] The reaction was monitored using thin-layer chromatography plates with DCM-MeOH or pure ethyl acetate as eluent. Spots were monitored in a UV chamber. The reaction mixture, upon completion of the reaction, was poured into wet ice mixture and triturated, then the separated solid was filtered by vacuum. The product was washed with hexane, followed by diethyl ether, and was dried under vacuum. The compounds were characterized by spectrophotometric techniques. Quantitative Real-Time PCR. The indicated cell lines were transfected with siRNA targeting septin-2 or non-targeting control siRNA (Santa Cruz Biotechnology: sc-37007 or sc-40936) using Lipofectamine 3000 (Invitrogen). Tri reagent and Direct-zol kit (Zymo Research) were used to lyse and isolate total RNA. Reverse transcription was performed using iScript cDNA synthesis kit (BioRad), both following the manufacturer's recommendations. Quantitative real-time PCR was conducted using QuantStudio 12 K Flex Real-Time PCR System (ABI) and the Taqman Gene Expression Assay (ABI) consisting of the FAM-labeled probes as follows: SEPT2 (Hs01565417_ml); WFDC2 (Hs00899484_ml); TBP (Hs00427620_ml) or B2M (Hs00187842_ml), which was used as reference for normalization. Cell Viability, Proliferation and Apoptosis Assay. Cell viability, proliferation, and cellular apoptosis were measured using the MTS (Promega), BrdU cell proliferation (Cell Signaling Technology), and Caspase-Glo 3/7 apoptosis detection (Promega) assays, following the respective manufacturer's recommendations with suitable modification. Enzyme-Linked Immunosorbent Assay (ELISA) and Immunoblotting. Cells were maintained overnight in the culture media described above. […] Following the treatment, cell lysates and supernatants were collected and subjected to HE4 assay (Human HE4 Quantikine ELISA Kit, R&D Systems). The amount of HE4 in supernatant was normalized to the protein concentration of matching cell lysate. The levels of HER2 were determined by Human Total ErbB2/Her2 DuoSet IC ELISA (R&D systems. Wester blot analysis was conducted using the protocol previously published (see Kim, K. K. et al. Tetrathiomolybdate inhibits mitochondrial complex IV and mediates degradation of hypoxia-inducible factor-1alpha in cancer cells. Sci. Rep. 5, 14296, 2015). Data Acquisition and Statistical Analysis. Gene expression profiling of septins, comparing microdissected normal ovarian stroma (N=8) against that of tumor stroma samples (N=31) from high grade serous ovarian cancer patients, was obtained from Mixed Ovarian Cancer (CAFs)-Wong-77-u133p2 data-set through ‘R2: Genomics Analysis and Visualization Platform (http://r2/am/n1). […] Survival curves between septin high and low population and their statistical significance were analyzed using GraphPad Prism software (Mantel-Cox test). […]

The next assay deals with HE4 mRNA. The experiment in a line: HE4 expression by real time PCR. In kind it is cell-based. Particulars: ECC-1, 300 μM, 5 hours, normalized to B2M. The method, then:
as §1

Structures are written as SMILES.

Turning to `O=C(Nc1cc(Cl)nc(Cl)c1)Nc1cccc(SC(F)(F)F)c1F` [UR214-9], the septin-9 filament structures result in the assay on septin-9 (PANC-1 and JIMT-1 cells) is recorded as “clear disarrangement in septin-9 filament structures”. In addition, the septin-9 structure result in the assay on septin-9 (SKOV-3, 1 μM, 48 hours) is listed as “reorganization of septin-9”. In the assay with EGFR, the EGFR expression result is given as “did not have an effect”.
On to `O=C(Nc1ccccc1)Nc1ccnc(Cl)c1` [FCF, N-(2-chloro-4-pyridyl)-N′-phenylurea, reference compound], for which the HE4 secretion result with HE4 (ECC-1 and HCH-1 cells, 5 hours) is listed as “dose-dependent”. Besides, in the assay with HE4 (OVCAR8-C5, 300 μM for 7 h), the HE4 secretion entry is on record as “decrease in HE4 secretion” and the “intracellular levels of HE4” value is recorded as “marginal increase”. In addition, the “HE4 mRNA” value with HE4 mRNA is given as “suppress HE4 mRNA to some extent”.

(Values after patent publication US12433876B2, “Septin inhibitors for treatment of cancers” (UNIVERSITY OF ROCHESTER, priority 2019, dated 2025).)
